Assay results from paper PMC4761905, “A Novel Heterocyclic Compound CE-104 Enhances Spatial Working Memory in the Radial Arm Maze in Rats and Modulates the Dopaminergic System” (Frontiers in Behavioral Neuroscience, 2016).

Columns and labels:
[1] = target: T1, norepinephrine transporter (NET) (Homo sapiens, UniProt P23975); assay: [3H]MPP+ uptake inhibition in HEK293 cells stably expressing human NET; assay type: cell-based
T1 construct: gene SLC6A2

[2] = target: T2, dopamine transporter (DAT) (Homo sapiens, UniProt Q01959); assay: [3H]dopamine uptake inhibition in HEK293 cells stably expressing human DAT; assay type: cell-based
T2 construct: gene SLC6A3
T2 sequence (Q01959 whole entry): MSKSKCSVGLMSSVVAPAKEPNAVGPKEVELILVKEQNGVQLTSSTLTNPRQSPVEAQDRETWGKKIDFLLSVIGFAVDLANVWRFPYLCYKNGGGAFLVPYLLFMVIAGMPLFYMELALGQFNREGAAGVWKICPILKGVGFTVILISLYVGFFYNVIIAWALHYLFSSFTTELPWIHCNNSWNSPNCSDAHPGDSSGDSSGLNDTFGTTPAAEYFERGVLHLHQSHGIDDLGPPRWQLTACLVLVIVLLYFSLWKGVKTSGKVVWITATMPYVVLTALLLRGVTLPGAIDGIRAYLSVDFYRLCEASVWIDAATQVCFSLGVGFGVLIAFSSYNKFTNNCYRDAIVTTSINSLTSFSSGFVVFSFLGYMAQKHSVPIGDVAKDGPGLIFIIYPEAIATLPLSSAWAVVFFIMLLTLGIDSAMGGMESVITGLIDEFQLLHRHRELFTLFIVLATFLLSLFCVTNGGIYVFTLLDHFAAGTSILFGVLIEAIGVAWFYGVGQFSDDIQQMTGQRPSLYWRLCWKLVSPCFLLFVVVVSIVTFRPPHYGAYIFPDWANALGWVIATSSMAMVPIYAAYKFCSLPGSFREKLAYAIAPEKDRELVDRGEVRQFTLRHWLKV

T1 sequence (P23975 whole entry): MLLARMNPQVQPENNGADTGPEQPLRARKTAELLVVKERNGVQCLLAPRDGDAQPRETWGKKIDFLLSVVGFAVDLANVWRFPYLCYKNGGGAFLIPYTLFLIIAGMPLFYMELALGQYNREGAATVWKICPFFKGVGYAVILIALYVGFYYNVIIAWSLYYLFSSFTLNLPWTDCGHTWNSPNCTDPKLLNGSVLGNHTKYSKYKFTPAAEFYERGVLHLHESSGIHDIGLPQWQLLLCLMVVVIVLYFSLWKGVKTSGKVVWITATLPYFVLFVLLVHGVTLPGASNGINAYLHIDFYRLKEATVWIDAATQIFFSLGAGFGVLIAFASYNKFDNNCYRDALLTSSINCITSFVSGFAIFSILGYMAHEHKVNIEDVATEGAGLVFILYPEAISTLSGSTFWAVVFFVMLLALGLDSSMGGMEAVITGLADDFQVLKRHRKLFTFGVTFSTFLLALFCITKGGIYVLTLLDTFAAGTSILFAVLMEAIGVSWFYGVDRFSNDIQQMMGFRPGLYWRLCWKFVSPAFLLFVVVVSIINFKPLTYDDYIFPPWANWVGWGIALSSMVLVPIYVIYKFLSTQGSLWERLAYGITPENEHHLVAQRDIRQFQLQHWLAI

`Cc1csc(C[S+]([O-])C(c2ccccc2)c2ccccc2)n1` (racemic) [CE-104, 2-(benzhydrylsulfinylmethyl)-4-methylthiazole] gave an IC50 [1] of 160 µM and an IC50 [2] of 27.9 µM.
